Experimental data: patent publication EP1144368B1, “ACETYLENIC ALPHA-AMINO ACID-BASED SULFONAMIDE HYDROXAMIC ACID TACE INHIBITORS” (priority 1999, dated 2000)
pIC50: −log10 of the molar value. Read-outs that look alike come from different tables or passages of the source.

Tests used:
MMP-1 = target: T1, MMP-1 (Homo sapiens, UniProt P03956); assay: MMP-1 inhibition (thiopeptide or fluorescent peptide substrate); format: biochemical
T1 sequence (P03956 100-469): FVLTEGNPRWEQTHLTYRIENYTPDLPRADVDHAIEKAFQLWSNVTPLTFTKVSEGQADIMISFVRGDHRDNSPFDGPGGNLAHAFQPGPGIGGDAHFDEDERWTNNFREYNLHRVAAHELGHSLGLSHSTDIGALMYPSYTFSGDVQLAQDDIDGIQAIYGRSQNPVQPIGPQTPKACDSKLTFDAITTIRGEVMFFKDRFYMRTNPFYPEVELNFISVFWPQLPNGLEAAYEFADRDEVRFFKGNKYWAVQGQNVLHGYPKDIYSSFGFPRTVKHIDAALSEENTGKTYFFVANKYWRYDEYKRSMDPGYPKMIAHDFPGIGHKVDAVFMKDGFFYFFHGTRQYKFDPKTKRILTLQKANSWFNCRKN
Protocol: (§1) The enzyme activity is measured by the rate of the color increase. The thiopeptide substrate is made up fresh as a 20 mM stock in 100% DMSO and the DTNB is dissolved in 100% DMSO as a 100 mM stock and stored in the dark at room temperature. Both the substrate and DTNB are diluted together to 1 mM with substrate buffer (50 mM HEPES pH 7.5, 5 mM CaCl2) before use. The stock of enzyme is diluted with buffer (50 mM HEPES, pH 7.5, 5 mM CaCl2, 0.02% Brij) to the desired final concentration.
(§2) Alternatively, a fluorescent peptide substrate is used. In this test procedure, the peptide substrate contains a fluorescent group and a quenching group. Upon cleavage of the substrate by an MMP, the fluorescence that is generated is quantitated on the fluorescence plate reader. The assay is run in HCBC assay buffer (50mM HEPES, pH 7.0, 5 mM Ca^+2, 0.02% Brij, 0.5% Cysteine), with human recombinant MMP-1, MMP-9, or MMP-13. The substrate is dissolved in methanol and stored frozen in 1 mM aliquots. For the assay, substrate and enzymes are diluted in HCBC buffer to the desired concentrations. Compounds are added to the 96 well plate containing enzyme and the reaction is started by the addition of substrate.
(§3) For either the thiopeptide or fluorescent peptide test procedures, the slope of the line is calculated and represents the reaction rate. The linearity of the reaction rate is confirmed (r^2 >0.85). The mean (x±sem) of the control rate is calculated and compared for statistical significance (p<0.05) with drug-treated rates using Dunnett's multiple comparison test.

THP-1 cells = assay: THP-1 Soluble Protein Assay (LPS-stimulated; ELISA of TNF-a, TNF-R p75/80, TNF-R p55/60, IL-8); format: cell-based, human; conditions: for inhibition at 3 µM: Homo sapiens
MMP-13 = MMP-13 (Homo sapiens, UniProt P45452); assay: MMP-13 inhibition (thiopeptide or fluorescent peptide substrate); format: biochemical
Protocol: as §1, §2, §3

TACE = TACE (Homo sapiens, UniProt P78536); assay: TACE inhibition (fluorescent peptidyl substrate); format: biochemical; conditions: for pIC50: read-out: TACE IC50; for inhibition at 1 µM: read-out: % Inhibition at 1 uM
Sequence of TACE (P78536 215-824): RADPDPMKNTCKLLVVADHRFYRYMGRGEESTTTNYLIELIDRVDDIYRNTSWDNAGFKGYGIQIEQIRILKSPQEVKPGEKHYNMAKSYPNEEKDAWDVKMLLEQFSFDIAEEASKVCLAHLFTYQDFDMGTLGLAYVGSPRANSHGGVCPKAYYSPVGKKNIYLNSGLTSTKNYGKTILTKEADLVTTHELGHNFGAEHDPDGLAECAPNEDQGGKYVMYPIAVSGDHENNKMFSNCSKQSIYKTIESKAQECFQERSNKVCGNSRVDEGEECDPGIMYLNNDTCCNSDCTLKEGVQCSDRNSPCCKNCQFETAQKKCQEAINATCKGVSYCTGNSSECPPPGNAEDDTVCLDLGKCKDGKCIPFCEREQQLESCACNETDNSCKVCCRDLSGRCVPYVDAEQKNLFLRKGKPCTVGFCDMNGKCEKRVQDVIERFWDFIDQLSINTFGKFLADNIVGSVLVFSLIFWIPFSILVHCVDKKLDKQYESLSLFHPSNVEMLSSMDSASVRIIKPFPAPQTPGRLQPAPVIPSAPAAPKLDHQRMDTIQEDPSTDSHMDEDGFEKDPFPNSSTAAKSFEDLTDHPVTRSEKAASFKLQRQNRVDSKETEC
Protocol: Using 96-well black microtiter plates, each well receives a solution composed of 10 µL TACE (final concentration 1µg/mL), 70µL Tris buffer, pH 7.4 containing 10% glycerol (final concentration 10 mM), and 10 µL of test compound solution in DMSO (final concentration 1µM, DMSO concentration <1%) and incubated for 10 minutes at room temperature.
The reaction is read (excitation 340 nm, emission 420 nm) for 10 min. and the increase in fluorescence over time is plotted as a linear line. The slope of the line is calculated and represents the reaction rate.
The linearity of the reaction rate is confirmed (r^2 >0.85). The mean (x±sem) of the control rate is calculated and compared for statistical significance (p<0.05) with drug-treated rates using Dunnett's multiple comparison test.

[1] = THP-1, read-out: THP % inhibition @ 3 µM, 3 µM
[2] = In Vitro Inhibition of TACE, 1 uM

## CC#CCOc1ccc(S(=O)(=O)N(C)C(C(=O)NO)c2ccc(OCCCNC(=O)OCc3ccccc3)cc2)cc1 (centres unmarked) [Example 196, Benzyl3-{4-[1-[{[4-(2-butynyloxy)phenyl]sulfonyl}(methyl)amino]-2-(hydroxyamino)-2-oxoethyl]phenoxy}propylcarbamate]
MMP-1; @1 (concentration unit not given)
  MMP-1 %@1: 25%@1
THP-1 cells; [1]
  inhibition at 3 µM: 87%

## CC#CCOc1ccc(S(=O)(=O)N2CCN(C)CCC2C(=O)NO)cc1 (centres unmarked) [Example 293, 4-{[4-(2-Butynyloxy)phenyl]sulfonyl}-N-hydroxy-1-methyl-1,4-diazepane-5-carboxamide]
THP-1 cells; THP-1, 3 µM, read-out: THP % Inhibition @ 3µM
  inhibition at 3 µM: 82%
MMP-13
  pIC50: 7.68

## CC#CCOc1ccc(S(=O)(=O)N2CCSC(C)(C)C2C(=O)NO)cc1 (centres unmarked) [235, 38]
MMP-1
  pIC50: 8.18
THP-1 cells; [1]
  inhibition at 3 µM: 94%
TACE
  pIC50: 8.08

## CC#CCOc1ccc(S(=O)(=O)N2CCN(C(=O)c3ccccc3)CCC2C(=O)NO)cc1 (centres unmarked) [Example 289, 1-Benzoyl-4-{[4-(2-butynyloxy)phenyl]sulfonyl}-N-hydroxy-1,4-diazepane-5-carboxamide]
MMP-13
  pIC50: 8.40

## CC#CCOc1ccc(S(=O)(=O)N2CCSC(CC)(CC)C2C(=O)NO)cc1 (centres unmarked) [Example 238]
MMP-1
  pIC50: 7.42
THP-1 cells; [1]
  inhibition at 3 µM: 73%
TACE
  pIC50: 6.64
MMP-13
  pIC50: 8.17

## CC#CCOc1ccc(S(=O)(=O)N[C@H](Cc2ccccc2)C(=O)NO)cc1 [Example 81]
TACE; [2]
  inhibition at 1 µM: 106%

## CC#CCOc1ccc(S(=O)(=O)N[C@@H](Cc2ccc(O)cc2)C(=O)NO)cc1 [Example 102]
TACE; [2]
  inhibition at 1 µM: 27.3%

## CC#CCOc1ccc(S(=O)(=O)N[C@H](C(=O)NO)C(C)C)cc1 [Example 104]
TACE
  inhibition at 1 µM: 38.5%

## CC#CCOc1ccc(S(=O)(=O)N[C@@H](CO)C(=O)NO)cc1 [Example 98]
TACE; [2]
  inhibition at 1 µM: 2.5%

## CC#CCOc1ccc(S(=O)(=O)N[C@@H](C(=O)NO)C2CCCCC2)cc1 [Example 78]
TACE; [2]
  inhibition at 1 µM: 101%

## CC#CCOc1ccc(S(=O)(=O)N[C@@H](CCCNC(N)=NS(=O)(=O)c2ccc(C)cc2)C(=O)NO)cc1 [Example 65]
TACE; [2]
  inhibition at 1 µM: 102%

## CC#CCOc1ccc(S(=O)(=O)N[C@H](Cc2c[nH]c3ccccc23)C(=O)NO)cc1 [Example 83]
TACE; [2]
  inhibition at 1 µM: 105%

## CC#CCOc1ccc(S(=O)(=O)N(CCCCN2CCN(C)CC2)C(C(=O)NO)C(C)C)cc1 (centres unmarked) [Example 122, 2-{{[4-(2-Butynyloxy)phenyl]sulfonyl}[4-(4-methyl-1-piperazinyl)butyl]amino}-N-hydroxy-3-methylbutanamide]
THP-1 cells; [1]
  inhibition at 3 µM: 69%
TACE
  pIC50: 6.90

## CC#CCOc1ccc(S(=O)(=O)N[C@@H](Cc2ccccc2)C(=O)NO)cc1 [Example 94]
TACE; [2]
  inhibition at 1 µM: 38.2%

## CC#CCOc1ccc(S(=O)(=O)N[C@H](C(=O)NO)c2ccccc2)cc1 [Example 95]
TACE; [2]
  inhibition at 1 µM: 98.6%

## CC#CCOc1ccc(S(=O)(=O)NCCC(=O)NO)cc1 [Example 69]
TACE
  inhibition at 1 µM: 48.5%

## CC#CCOc1ccc(S(=O)(=O)N[C@@H](CSCNC(C)=O)C(=O)NO)cc1 [Example 96]
TACE; [2]
  inhibition at 1 µM: 22%

## CC#CCOc1ccc(S(=O)(=O)N(C)CC(=O)NO)cc1 [Example 17, 2-[(4-But-2-ynyloxy-benzenesulfonyl)-methyl-amino]-N-hydroxy-acetamide]
MMP-1
  pIC50: 5.72
THP-1 cells; [1]
  inhibition at 3 µM: 33%
MMP-13
  pIC50: 7.00

## CC#CCOc1ccc(S(=O)(=O)N[C@H](C(=O)NO)[C@@H](C)CC)cc1 [Example 89]
TACE; [2]
  inhibition at 1 µM: 56.8%

## CC#CCOc1ccc(S(=O)(=O)N[C@@H](CCC(=O)O)C(=O)NO)cc1 [Example 86]
TACE; [2]
  inhibition at 1 µM: 37.5%

## 9-({[4-(2-Butynyloxy)phenyl]sulfonyl}-N-hydroxy-1-thia-4-azaspiro [5,5]undecane-5-carboxamide [Example 237]
MMP-1
  pIC50: 7.21
THP-1 cells; 3 µM
  THP % inhibition @ 3 µM: 90%
TACE
  pIC50: 6.67
MMP-13
  pIC50: 7.92

## CC#CCOc1ccc(S(=O)(=O)N[C@H](C(=O)NO)C2CCCCC2)cc1 [Example 72]
TACE; [2]
  inhibition at 1 µM: 57.4%
